In publication PMC10924921, “Mi-2β promotes immune evasion in melanoma by activating EZH2 methylation” (Nature Communications, 2024):

How the values were obtained:
Experiment in all cases: biochemical
Set-up in all cases: KINOMEscan active-site competition binding panel (468 kinase assays), per cent of control at 1000 nM
Settings in all cases: KINOMEscan per cent of control (binding competition); read-out: Percent Control
[1] = target: T1, ABL1(F317L)-phosphorylated (Homo sapiens, UniProt P00519, F317L)
T1 construct: phosphorylated
T1 sequence (P00519 whole entry F317L): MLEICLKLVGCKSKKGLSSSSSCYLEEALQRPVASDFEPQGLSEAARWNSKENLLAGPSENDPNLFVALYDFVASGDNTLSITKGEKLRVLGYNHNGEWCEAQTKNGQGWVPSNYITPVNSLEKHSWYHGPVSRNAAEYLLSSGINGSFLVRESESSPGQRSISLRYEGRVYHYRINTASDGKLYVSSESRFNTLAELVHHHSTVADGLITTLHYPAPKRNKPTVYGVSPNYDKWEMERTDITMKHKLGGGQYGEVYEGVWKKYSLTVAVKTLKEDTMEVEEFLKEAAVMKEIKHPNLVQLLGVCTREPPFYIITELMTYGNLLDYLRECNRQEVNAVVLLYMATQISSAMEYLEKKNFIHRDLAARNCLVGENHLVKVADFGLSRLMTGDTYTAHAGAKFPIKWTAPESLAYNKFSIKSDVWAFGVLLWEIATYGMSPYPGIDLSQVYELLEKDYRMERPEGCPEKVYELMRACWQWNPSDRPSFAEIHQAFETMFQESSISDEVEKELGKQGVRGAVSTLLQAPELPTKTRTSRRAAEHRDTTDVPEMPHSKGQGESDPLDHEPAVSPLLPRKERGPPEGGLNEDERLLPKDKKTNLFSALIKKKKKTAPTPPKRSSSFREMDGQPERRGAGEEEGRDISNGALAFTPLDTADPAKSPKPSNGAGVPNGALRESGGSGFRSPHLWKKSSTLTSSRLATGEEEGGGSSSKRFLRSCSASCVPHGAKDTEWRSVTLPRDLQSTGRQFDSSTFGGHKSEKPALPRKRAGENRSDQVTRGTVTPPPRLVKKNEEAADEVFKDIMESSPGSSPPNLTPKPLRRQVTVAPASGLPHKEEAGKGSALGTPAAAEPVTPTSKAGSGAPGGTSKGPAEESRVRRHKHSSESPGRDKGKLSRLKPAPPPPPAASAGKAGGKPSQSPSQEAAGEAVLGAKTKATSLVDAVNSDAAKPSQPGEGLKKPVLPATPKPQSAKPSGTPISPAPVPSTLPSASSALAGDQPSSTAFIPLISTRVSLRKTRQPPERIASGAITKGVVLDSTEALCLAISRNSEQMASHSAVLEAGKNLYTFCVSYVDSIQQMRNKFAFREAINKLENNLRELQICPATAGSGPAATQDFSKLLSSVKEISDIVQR
Text: (§1) Figure S7 / Percent Control

ABL1-phosphorylated = target: T2, ABL1-phosphorylated (Homo sapiens, UniProt P00519)
T2 construct: phosphorylated
T2 sequence (P00519 whole entry): as the sequence (P00519 whole entry F317L) above, with L317F counted along it
Text: as §1

ACVRL1 = ACVRL1 (Homo sapiens, UniProt P37023)
Text: as §1

CDK11 = target: T3, CDK11 (Homo sapiens, UniProt Q9BWU1)
T3 construct: gene CDK19
Text: as §1

DAPK3 = DAPK3 (Homo sapiens, UniProt O43293)
Chain of DAPK3 (O43293 whole entry): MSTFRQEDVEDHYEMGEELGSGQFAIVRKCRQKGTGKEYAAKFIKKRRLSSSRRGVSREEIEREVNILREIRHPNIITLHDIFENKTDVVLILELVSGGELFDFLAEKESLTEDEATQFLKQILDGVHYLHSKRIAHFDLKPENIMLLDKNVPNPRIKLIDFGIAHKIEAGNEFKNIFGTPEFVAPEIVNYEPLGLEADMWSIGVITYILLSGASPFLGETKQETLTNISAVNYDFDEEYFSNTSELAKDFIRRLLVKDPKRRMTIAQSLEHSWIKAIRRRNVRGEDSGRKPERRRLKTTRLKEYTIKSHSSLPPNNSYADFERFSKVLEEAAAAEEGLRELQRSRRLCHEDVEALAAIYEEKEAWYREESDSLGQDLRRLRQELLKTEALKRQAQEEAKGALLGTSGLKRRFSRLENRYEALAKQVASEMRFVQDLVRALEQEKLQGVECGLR
Text: as §1

EGFR(G719S) = EGFR(G719S) (Homo sapiens, UniProt P00533, G719S)
Text: as §1

[2] = target: EGFR(L747-E749del, A750P) (Homo sapiens, UniProt P00533, A750P/DEL747-749)
Text: as §1

ERK4 = target: T4, ERK4 (Homo sapiens, UniProt P31152)
T4 construct: gene MAPK4
Text: as §1

FLT3(ITD,D835V) = FLT3(ITD,D835V) (Homo sapiens, UniProt P36888, D835V/ITD)
Text: as §1

FLT3(N841I) = FLT3(N841I) (Homo sapiens, UniProt P36888, N841I)
Text: as §1

FLT4 = FLT4 (Homo sapiens, UniProt P35916)
Text: as §1

GRK1 = GRK1 (Homo sapiens, UniProt Q15835)
Text: as §1

INSR = INSR (Homo sapiens, UniProt P06213)
Text: as §1

LYN = LYN (Homo sapiens, UniProt P07948)
Chain of LYN (P07948 whole entry): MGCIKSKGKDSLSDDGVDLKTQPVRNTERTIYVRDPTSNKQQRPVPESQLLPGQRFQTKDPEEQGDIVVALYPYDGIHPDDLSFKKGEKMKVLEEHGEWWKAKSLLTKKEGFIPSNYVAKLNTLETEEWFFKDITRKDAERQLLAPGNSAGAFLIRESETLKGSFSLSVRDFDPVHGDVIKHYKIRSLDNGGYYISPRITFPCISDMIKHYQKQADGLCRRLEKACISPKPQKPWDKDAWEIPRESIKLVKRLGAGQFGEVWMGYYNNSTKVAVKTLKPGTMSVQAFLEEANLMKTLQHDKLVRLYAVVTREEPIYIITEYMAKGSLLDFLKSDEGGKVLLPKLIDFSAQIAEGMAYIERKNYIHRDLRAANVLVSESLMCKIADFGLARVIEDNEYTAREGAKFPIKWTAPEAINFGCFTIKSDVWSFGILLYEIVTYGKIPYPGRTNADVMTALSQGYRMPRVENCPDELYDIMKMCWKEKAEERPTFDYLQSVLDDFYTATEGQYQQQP
Text: as §1

MET = MET (Homo sapiens, UniProt P08581)
Text: as §1

MYO3A = MYO3A (Homo sapiens, UniProt Q8NEV4)
Text: as §1

MYO3B = MYO3B (Homo sapiens, UniProt Q8WXR4)
Chain of MYO3B (Q8WXR4 whole entry): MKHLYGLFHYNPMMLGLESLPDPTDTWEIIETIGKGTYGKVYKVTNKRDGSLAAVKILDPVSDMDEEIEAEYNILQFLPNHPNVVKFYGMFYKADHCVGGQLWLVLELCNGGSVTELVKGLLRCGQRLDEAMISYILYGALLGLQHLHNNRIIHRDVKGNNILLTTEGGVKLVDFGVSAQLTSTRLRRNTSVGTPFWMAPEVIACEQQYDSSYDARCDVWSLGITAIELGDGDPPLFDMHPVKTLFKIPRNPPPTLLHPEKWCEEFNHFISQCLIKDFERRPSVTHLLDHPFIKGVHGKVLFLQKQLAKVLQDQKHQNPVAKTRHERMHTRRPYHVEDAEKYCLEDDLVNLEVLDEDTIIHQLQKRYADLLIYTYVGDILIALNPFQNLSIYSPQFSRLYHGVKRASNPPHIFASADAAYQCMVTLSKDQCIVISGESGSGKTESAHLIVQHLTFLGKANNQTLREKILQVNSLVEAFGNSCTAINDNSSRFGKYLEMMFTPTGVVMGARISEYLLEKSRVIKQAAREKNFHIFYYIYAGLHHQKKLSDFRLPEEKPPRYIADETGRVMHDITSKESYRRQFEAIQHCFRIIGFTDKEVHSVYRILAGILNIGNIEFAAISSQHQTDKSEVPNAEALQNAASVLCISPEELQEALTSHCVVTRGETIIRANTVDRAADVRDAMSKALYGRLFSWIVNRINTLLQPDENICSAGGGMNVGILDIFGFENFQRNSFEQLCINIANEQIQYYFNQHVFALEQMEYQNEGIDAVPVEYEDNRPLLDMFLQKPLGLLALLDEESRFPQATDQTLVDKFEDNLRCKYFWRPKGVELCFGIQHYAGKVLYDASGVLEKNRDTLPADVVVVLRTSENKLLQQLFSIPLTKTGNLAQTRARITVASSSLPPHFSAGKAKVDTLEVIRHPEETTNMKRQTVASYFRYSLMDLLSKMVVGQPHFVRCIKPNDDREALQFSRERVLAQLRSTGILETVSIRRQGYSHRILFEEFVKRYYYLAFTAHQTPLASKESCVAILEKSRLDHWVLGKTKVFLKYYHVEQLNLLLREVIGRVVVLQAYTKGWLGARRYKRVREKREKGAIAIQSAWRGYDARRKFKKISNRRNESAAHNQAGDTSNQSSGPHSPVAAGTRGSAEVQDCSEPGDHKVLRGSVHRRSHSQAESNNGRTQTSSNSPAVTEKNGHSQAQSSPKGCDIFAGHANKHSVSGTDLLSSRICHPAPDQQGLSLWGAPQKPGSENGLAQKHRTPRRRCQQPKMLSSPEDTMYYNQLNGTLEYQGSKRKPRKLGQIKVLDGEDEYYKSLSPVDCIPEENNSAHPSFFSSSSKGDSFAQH
Text: as §1

NDR2 = target: T5, NDR2 (Homo sapiens, UniProt Q9Y2H1)
T5 construct: gene STK38L
Text: as §1

PIK3CA(H1047L) = PIK3CA(H1047L) (Homo sapiens, UniProt P42336, H1047L)
Text: as §1

SIK2 = SIK2 (Homo sapiens, UniProt Q9H0K1)
Chain of SIK2 (Q9H0K1 whole entry): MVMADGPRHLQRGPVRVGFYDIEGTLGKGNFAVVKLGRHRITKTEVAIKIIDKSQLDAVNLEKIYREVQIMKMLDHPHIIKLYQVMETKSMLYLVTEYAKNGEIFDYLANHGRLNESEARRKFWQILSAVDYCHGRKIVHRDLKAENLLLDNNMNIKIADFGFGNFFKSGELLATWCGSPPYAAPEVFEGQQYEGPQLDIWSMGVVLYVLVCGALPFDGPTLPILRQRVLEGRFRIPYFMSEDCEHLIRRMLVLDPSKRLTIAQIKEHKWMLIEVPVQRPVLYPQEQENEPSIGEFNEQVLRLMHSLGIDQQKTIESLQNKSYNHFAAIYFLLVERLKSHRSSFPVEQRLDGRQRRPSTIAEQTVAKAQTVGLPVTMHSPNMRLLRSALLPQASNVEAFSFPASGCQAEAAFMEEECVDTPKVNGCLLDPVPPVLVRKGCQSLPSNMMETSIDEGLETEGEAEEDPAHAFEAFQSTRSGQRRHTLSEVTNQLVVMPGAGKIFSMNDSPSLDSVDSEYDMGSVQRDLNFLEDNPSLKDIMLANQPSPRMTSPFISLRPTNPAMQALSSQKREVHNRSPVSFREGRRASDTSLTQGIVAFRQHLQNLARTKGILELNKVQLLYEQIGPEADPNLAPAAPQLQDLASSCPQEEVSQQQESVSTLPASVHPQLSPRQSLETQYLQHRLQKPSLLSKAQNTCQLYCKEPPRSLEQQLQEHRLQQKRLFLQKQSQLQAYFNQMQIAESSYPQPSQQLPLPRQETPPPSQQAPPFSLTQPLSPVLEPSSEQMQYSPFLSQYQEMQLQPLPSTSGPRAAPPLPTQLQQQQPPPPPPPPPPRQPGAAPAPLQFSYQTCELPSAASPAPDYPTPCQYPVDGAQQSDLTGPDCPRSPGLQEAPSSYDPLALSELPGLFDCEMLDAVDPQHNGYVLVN
Text: as §1

TBK1 = TBK1 (Homo sapiens, UniProt Q9UHD2)
Text: as §1

TIE2 = target: T6, TIE2 (Homo sapiens, UniProt Q02763)
T6 construct: gene TEK
Text: as §1

YANK3 = target: T7, YANK3 (Homo sapiens, UniProt Q86UX6)
T7 construct: gene STK32C
T7 sequence (Q86UX6 whole entry): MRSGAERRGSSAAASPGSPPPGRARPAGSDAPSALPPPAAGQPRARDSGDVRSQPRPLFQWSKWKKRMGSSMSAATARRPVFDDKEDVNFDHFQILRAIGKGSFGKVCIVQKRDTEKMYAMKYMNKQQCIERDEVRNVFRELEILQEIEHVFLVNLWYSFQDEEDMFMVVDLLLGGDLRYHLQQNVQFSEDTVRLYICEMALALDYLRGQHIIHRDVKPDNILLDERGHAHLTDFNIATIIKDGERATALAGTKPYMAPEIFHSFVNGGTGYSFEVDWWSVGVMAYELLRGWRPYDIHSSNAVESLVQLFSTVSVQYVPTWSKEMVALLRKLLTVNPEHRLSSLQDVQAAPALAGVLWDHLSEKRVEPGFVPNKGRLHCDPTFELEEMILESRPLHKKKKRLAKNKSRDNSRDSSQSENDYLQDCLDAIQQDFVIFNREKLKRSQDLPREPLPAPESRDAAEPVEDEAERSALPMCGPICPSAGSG
Text: as §1

p38-gamma = target: T8, p38-gamma (Homo sapiens, UniProt P53778)
T8 construct: gene MAPK12
Text: as §1

Work on `Cn1c(=O)[nH]c2ccc(-c3cccc(C(=O)NC4CCn5ccnc5C4)c3)cc21` (stereo not drawn) [Z36-MP5] yielded a remaining binding at 1 µM [1] of 83%, a remaining binding at 1 µM (ABL1-phosphorylated) of 51% and a remaining binding at 1 µM (ACVRL1) of 92%. It also gave a remaining binding at 1 µM (CDK11) of 82%, a remaining binding at 1 µM (DAPK3) of 89% and a remaining binding at 1 µM (EGFR(G719S)) of 85%. For the same compound, the remaining binding at 1 µM [2] was 90%, the remaining binding at 1 µM (ERK4) was 91% and the remaining binding at 1 µM (FLT3(ITD,D835V)) was 56%. For the same compound, the remaining binding at 1 µM (FLT3(N841I)) was 63%, the remaining binding at 1 µM (FLT4) was 80% and the remaining binding at 1 µM (GRK1) was 29%. For the same compound, the remaining binding at 1 µM (INSR) was 57%, the remaining binding at 1 µM (LYN) was 77% and the remaining binding at 1 µM (MET) was 96%. For the same compound, the remaining binding at 1 µM (MYO3A) was 100%, the remaining binding at 1 µM (MYO3B) was 91% and the remaining binding at 1 µM (NDR2) was 74%. It also gave a remaining binding at 1 µM (PIK3CA(H1047L)) of 90%, a remaining binding at 1 µM (SIK2) of 81% and a remaining binding at 1 µM (TBK1) of 98%. The remaining binding at 1 µM (TIE2) was 58%, the remaining binding at 1 µM (YANK3) was 94% and the remaining binding at 1 µM (p38-gamma) was 78%.
